Measured values: ChEMBL document CHEMBL4837181 (Eur J Med Chem, 2020)

Assays:
[1] = Dose normalized Cmax in rat at 50 mg/kg, po measured upto 72 hrs by LC-MS/MS analysis; type: ADME, organism-based; details: in vivo
[2] = Change in normalised AUC (infinity) in rat at 50 mg/kg, po measured upto 72 hrs by LC-MS/MS analysis; type: ADME, organism-based; details: in vivo
[3] = Stability in mouse plasma assessed as parent compound remaining measured after 2 hrs by LC-MS/MS analysis; type: ADME, cell-free; details: read-out: Stabilty
[4] = Stability in rat plasma assessed as parent compound remaining measured after 2 hrs by LC-MS/MS analysis; type: ADME, cell-free; details: read-out: Stabilty
[5] = Dose normalized AUC (0 to infinity) in rat at 50 mg/kg, po measured upto 72 hrs by LC-MS/MS analysis; type: ADME, organism-based; details: in vivo
[6] = Change in normalised Cmax in rat at 50 mg/kg, po measured upto 72 hrs by LC-MS/MS analysis; type: ADME, organism-based; details: in vivo
[7] = Tmax in female cynomolgus monkey at 375 mg/kg, po BID measured on day 8; type: ADME, organism-based, Macaca fascicularis; details: in vivo
[8] = Half life in female cynomolgus monkey at 675 mg/kg, po measured on day 1; type: ADME, organism-based, Macaca fascicularis; details: in vivo
[9] = AUC (0 to 24 hrs) in male cynomolgus monkey at 675 mg/kg, po measured on day 1; type: ADME, organism-based, Macaca fascicularis; parameters: time < 24 hr, route oral, dose 675 mg/kg; details: in vivo
[10] = Drug accumulation in monkey at 75 to 375 mg/kg, po BID; type: ADME, organism-based, Macaca mulatta; details: rhesus monkey, in vivo, dose 75-375 mg/kg
[11] = Cmax in male cynomolgus monkey at 675 mg/kg, po measured on day 1; type: ADME, organism-based, Macaca fascicularis; parameters: route oral, dose 675 mg/kg; details: in vivo
[12] = AUC (0 to 24 hrs) in female cynomolgus monkey at 675 mg/kg, po measured on day 1; type: ADME, organism-based, Macaca fascicularis; parameters: time < 24 hr, route oral, dose 675 mg/kg; details: in vivo
[13] = Half life in male cynomolgus monkey at 675 mg/kg, po measured on day 1; type: ADME, organism-based, Macaca fascicularis; details: in vivo
[14] = Cmax in male cynomolgus monkey at 225 mg/kg, po measured on day 1; type: ADME, organism-based, Macaca fascicularis; parameters: route oral, dose 225 mg/kg; details: in vivo
[15] = Tmax in female cynomolgus monkey at 675 mg/kg, po measured on day 1; type: ADME, organism-based, Macaca fascicularis; details: in vivo
[16] = Drug accumulation in rat at 100 to 900 mg/kg, po BID; type: ADME, organism-based; details: in vivo, dose 100-900 mg/kg
[17] = Protein binding in human plasma; type: ADME, cell-free; details: read-out: PPB
[18] = AUC (0 to 24 hrs) in female cynomolgus monkey at 375 mg/kg, po BID measured on day 8; type: ADME, organism-based, Macaca fascicularis; parameters: time < 24 hr, route oral, dose 375 mg/kg; details: in vivo
[19] = AUC (0 to 24 hrs) in male cynomolgus monkey at 150 mg/kg, po BID measured on day 8; type: ADME, organism-based, Macaca fascicularis; parameters: time < 24 hr, route oral, dose 150 mg/kg; details: in vivo
[20] = Cmax in female cynomolgus monkey at 675 mg/kg, po measured on day 1; type: ADME, organism-based, Macaca fascicularis; parameters: route oral, dose 675 mg/kg; details: in vivo
[21] = Tmax in male cynomolgus monkey at 225 mg/kg, po measured on day 1; type: ADME, organism-based, Macaca fascicularis; details: in vivo
[22] = Tmax in male cynomolgus monkey at 150 mg/kg, po BID measured on day 8; type: ADME, organism-based, Macaca fascicularis; details: in vivo
[23] = Cmax in male cynomolgus monkey at 150 mg/kg, po BID measured on day 8; type: ADME, organism-based, Macaca fascicularis; parameters: route oral, dose 150 mg/kg; details: in vivo
[24] = Tmax in male cynomolgus monkey at 675 mg/kg, po measured on day 1; type: ADME, organism-based, Macaca fascicularis; details: in vivo
[25] = AUC (0 to 24 hrs) in male cynomolgus monkey at 225 mg/kg, po measured on day 1; type: ADME, organism-based, Macaca fascicularis; parameters: time < 24 hr, route oral, dose 225 mg/kg; details: in vivo, 24 h
[26] = Cmax in female cynomolgus monkey at 375 mg/kg, po BID measured on day 8; type: ADME, organism-based, Macaca fascicularis; parameters: route oral, dose 375 mg/kg; details: in vivo
[27] = Protein binding in Beagle dog plasma; type: ADME, cell-free, Canis lupus familiaris; details: read-out: PPB
[28] = Change in AUC(infinity) in rat at 500 umol/kg, po measured upto 72 hrs by LC-MS/MS analysis; type: ADME, organism-based; details: in vivo, at 500 µmol/kg
[29] = Change in Cmax in cynomolgus monkey at 92 umol/kg, po measured after 0.083 to 48 hrs by LC-MS/MS analysis; type: ADME, organism-based, Macaca fascicularis; details: in vivo, at 92 µmol/kg, time 0.083-48 hrs
[30] = Change in AUC (infinity) in rat at 37 umol/kg, po measured upto 72 hrs by LC-MS/MS analysis; type: ADME, organism-based; details: in vivo, at 37 µmol/kg
[31] = Change in Cmax in rat at 185 umol/kg, po measured upto 72 hrs by LC-MS/MS analysis; type: ADME, organism-based; details: in vivo, at 185 µmol/kg
[32] = Change in Cmax in rat at 500 umol/kg, po measured upto 72 hrs by LC-MS/MS analysis; type: ADME, organism-based; details: in vivo, at 500 µmol/kg
[33] = Change in AUC(infinity) in cynomolgus monkey at 825 umol/kg, po measured after 0.083 to 48 hrs by LC-MS/MS analysis; type: ADME, organism-based, Macaca fascicularis; details: in vivo, at 825 µmol/kg, time 0.083-48 hrs
[34] = Change in Cmax in rat at 37 umol/kg, po measured upto 72 hrs by LC-MS/MS analysis; type: ADME, organism-based; details: in vivo, at 37 µmol/kg
[35] = Change in Cmax in cynomolgus monkey at 275 umol/kg, po measured after 0.083 to 48 hrs by LC-MS/MS analysis; type: ADME, organism-based, Macaca fascicularis; details: in vivo, at 275 µmol/kg, time 0.083-48 hrs
[36] = Change in AUC(infinity) in cynomolgus monkey at 275 umol/kg, po measured after 0.083 to 48 hrs by LC-MS/MS analysis; type: ADME, organism-based, Macaca fascicularis; details: in vivo, at 275 µmol/kg, time 0.083-48 hrs
[37] = Change in Cmax in cynomolgus monkey at 825 umol/kg, po measured after 0.083 to 48 hrs by LC-MS/MS analysis; type: ADME, organism-based, Macaca fascicularis; details: in vivo, at 825 µmol/kg, time 0.083-48 hrs
[38] = Change in AUC(infinity) in cynomolgus monkey at 92 umol/kg, po measured after 0.083 to 48 hrs by LC-MS/MS analysis; type: ADME, organism-based, Macaca fascicularis; details: in vivo, at 92 µmol/kg, time 0.083-48 hrs

Cl.Cn1cc(C[C@@H](N)C(=O)OCc2ccccc2)c2ccccc21
Cmax/dose [1]: 28 µM
Activity [2]: -22%
remaining at 2 h [3]: 0%
remaining at 2 h [4]: 0%
AUC/dose [5]: 1028 µM·h
Activity [6]: 4%

CC(C)C[C@H](N)C(=O)N[C@H](Cc1cn(C)c2ccccc12)C(=O)O
Tmax [7]: 2 h
half-life [8]: 492 min
AUC [9]: 2880 nM·h
Drug metabolism [10]: Metabolite_Notdetected
Cmax [11]: 1760 nM
AUC [12]: 3.61 µM·h
half-life [13]: 222 min
Cmax [14]: 353 nM
Tmax [15]: 1.5 h
Drug metabolism [16]: Metabolite_Notdetected
fraction unbound [17]: > 0.5
AUC at 24 h [18]: 0.703 µM·h
AUC at 24 h [19]: 0.0806 µM·h
Cmax [20]: 1580 nM
Tmax [21]: 2 h
Tmax [22]: 1 h
Cmax [23]: 192 nM
Tmax [24]: 1 h
AUC [25]: 858 nM·h
Cmax [26]: 308 nM
fraction unbound [27]: > 0.5

CCOC(=O)[C@@H](Cc1cn(C)c2ccccc12)NC(=O)[C@@H](N)CCSC.Cl
Activity [28]: 49%
Activity [29]: 305%
Activity [30]: 13%
Activity [31]: 152%
Activity [32]: 59%
Activity [33]: 369%
Activity [34]: 21%
Activity [35]: 402%
Activity [36]: 393%
Activity [37]: 411%
Activity [38]: 136%
